Tests used:
Assay type in all cases: cell-based
[1] = system: Parental (Ba/F3); experiment: Ba/F3 cell proliferation inhibition; settings: BaF3; 72 hours, Cell Counting Kit-8
Protocol: (§1) […] lymphocyte cells, Parental (Ba/F3) and T315I-Bcr-Abl (Ba/F3) were seeded in 96-well plates at the density of 1×10^4/90 μL/well. A culture solution containing 9 concentrations (0.015 to 100 μM) of each example compound serially diluted in 3 folds or DMSO (control) were added to the plate ([…]) to a final concentration of 0 to 10 μM. The plate was incubated in a 37° C. CO2 incubator for 72 hours.
(§2) After incubation for 72 hours, the plate treated with the compound was treated with Cell Counting Kit-8 (Dojindo Molecular Technologies, Inc) solution at the concentration of 10 μL/well, and then mixed well. Then, the plate was incubated in a CO2 incubator at 37° C. for 2 hours, and absorbance at 450 nm was measured with a microplate reader. Data were expressed as percentage compared to vehicle treated cells and GI50 values were calculated using GraphPad Prism 5.0 (GraphPad software Inc., San Diego) GraphPad Prism 5.0.

[2] = system: T315I-Bcr-Abl (Ba/F3); experiment: Ba/F3 cell proliferation inhibition; settings: BaF3; 72 hours, Cell Counting Kit-8
Protocol: as §1, §2

[3] = system: KOPM28 cells; experiment: human CML cell proliferation inhibition; settings: 72 hours, Cell Counting Kit-8
Protocol: (§3) In order to evaluate the therapeutic effect of the compound according to the present invention on chronic myelogenous leukemia (CML), the following experiment was performed, and the results are shown in Table 6 below. Inhibitory activity to Bcr-Abl kinase was evaluated through the experiment using TCCS and KOPM28 cells, and inhibitory activity to T315I-Bcr-Abl kinase was evaluated through the experiment using T315I-TCCS and T315I-KOPM28 cells.
(§4) Human chronic myelogenous leukemia (CML) cells used in the experiment were TCCS, T315I-TCCS, KOPM28 and T315I-KOPM28, and the four types of cells were provided by University of Yamanashi.
(§5) Four types of human CML cells were each seeded in 96-well plates at the density of 1×10^4/90 μL/well. A culture solution containing 9 concentrations (0.000256 to 100 μM) of each example compound serially diluted in 5 folds or DMSO (control) were added to the plate (10 μL/well) to a final concentration of 0 to 10 μM. The plate was incubated in a 37° C. CO2 incubator for 72 hours.
as §2, with “8.0” for “5.0”, “Diego).” for “Diego) GraphPad Prism 5.0.”

[4] = system: T315I-KOPM28 cells; experiment: human CML cell proliferation inhibition; settings: 72 hours, Cell Counting Kit-8
Protocol: as §3, §4, §5
as §2, with “8.0” for “5.0”, “Diego).” for “Diego) GraphPad Prism 5.0.”

[5] = system: T315I-TCCS cells; experiment: human CML cell proliferation inhibition; settings: 72 hours, Cell Counting Kit-8
Protocol: as §3, §4, §5
as §2, with “8.0” for “5.0”, “Diego).” for “Diego) GraphPad Prism 5.0.”

[6] = system: TCCS cells; experiment: human CML cell proliferation inhibition; settings: 72 hours, Cell Counting Kit-8
Protocol: as §3, §4, §5
as §2, with “8.0” for “5.0”, “Diego).” for “Diego) GraphPad Prism 5.0.”

SMILES	GI50 [1] [nM]	GI50 [2] [nM]	GI50 [3] [nM]	GI50 [4] [nM]	GI50 [5] [nM]	GI50 [6] [nM]
Cc1cn(-c2cc(NC(=O)c3cc(F)c(C)c(C#Cc4cnc5c(Nc6cnn(C)c6)cccn45)c3)cc(C(C)(C)C#N)c2)cn1 [Example 2, N-(3-(2-cyanopropan-2-yl)-5-(4-methyl-1H-imidazol-1-yl)phenyl)-3-fluoro-4-methyl-5-((8-((1-methyl-1H-pyrazol-4-yl)amino)imidazo[1,2-a]pyridin-3-yl)ethynyl)benzamide]	> 5000	< 50	< 10	100	< 10	< 10
Cc1cn(-c2cc(NC(=O)c3ccc(C)c(C#Cc4cnc5c(Nc6cnn(C)c6)cccn45)c3F)cc(C(C)(C)C#N)c2)cn1 [Example 3, N-(3-(2-cyanopropan-2-yl)-5-(4-methyl-1H-imidazol-1-yl)phenyl)-2-fluoro-4-methyl-3-((8-((1-methyl-1H-pyrazol-4-yl)amino)imidazo[1,2-a]pyridin-3-yl)ethynyl)benzamide]	> 5000	< 50	< 10	100	100	< 10
Cc1cn(-c2cc(NC(=O)c3cc(F)c(C)c(C#Cc4cnc5c(Nc6cnn(C)c6)cccn45)c3)cc(C(F)(F)F)c2)cn1 [Example 5, 3-fluoro-4-methyl-N-(3-(4-methyl-1H-imidazol-1-yl)-5-(trifluoromethyl)phenyl)-5-((8-((1-methyl-1H-pyrazol-4-yl)amino)imidazo[1,2-a]pyridin-3-yl)ethynyl)benzamide]	> 5000	< 50	100	100	100	100
Cc1cn(-c2cc(NC(=O)c3ccc(C)c(C#Cc4cnc5c(Nc6cnn(C)c6)cccn45)c3F)cc(C(F)(F)F)c2)cn1 [Example 6, 2-fluoro-4-methyl-N-(3-(4-methyl-1H-imidazol-1-yl)-5-(trifluoromethyl)phenyl)-3-((8-((1-methyl-1H-pyrazol-4-yl)amino)imidazo[1,2-a]pyridin-3-yl)ethynyl)benzamide]	> 5000	50 to 500	100	> 100	100	< 10
Cc1cc(F)c(C(=O)Nc2cc(Oc3ccncc3)cc(C(F)(F)F)c2)cc1C#Cc1cnc2c(Nc3cnn(C)c3)cccn12 [Example 7, 2-fluoro-4-methyl-5-((8-((1-methyl-1H-pyrazol-4-yl)amino)imidazo[1,2-a]pyridin-3-yl)ethynyl)-N-(3-(pyridin-4-yloxy)-5-(trifluoromethyl)phenyl)benzamide]	> 5000	< 50	< 10	< 10	< 10	< 10
Cc1c(F)cc(C(=O)Nc2cc(Oc3ccncc3)cc(C(F)(F)F)c2)cc1C#Cc1cnc2c(Nc3cnn(C)c3)cccn12 [Example 8, 3-fluoro-4-methyl-5-((8-((1-methyl-1H-pyrazol-4-yl)amino)imidazo[1,2-a]pyridin-3-yl)ethynyl)-N-(3-(pyridin-4-yloxy)-5-(trifluoromethyl)phenyl)benzamide]	> 5000	< 50	< 10	100	100	< 10
Cc1ccc(C(=O)Nc2cc(Oc3ccncc3)cc(C(F)(F)F)c2)c(F)c1C#Cc1cnc2c(Nc3cnn(C)c3)cccn12 [Example 9, 2-fluoro-4-methyl-3-((8-((1-methyl-1H-pyrazol-4-yl)amino)imidazo[1,2-a]pyridin-3-yl)ethynyl)-N-(3-(pyridin-4-yloxy)-5-(trifluoromethyl)phenyl)benzamide]	> 5000	< 50	< 10	100	100	< 10
Cc1cc(F)c(C(=O)Nc2cc(CN3CCN(CCO)CC3)cc(C(C)(C)C#N)c2)cc1C#Cc1cnc2c(Nc3cnn(C)c3)cccn12 [Example 10, N-(3-(2-cyanopropan-2-yl)-5-((4-(2-hydroxyethyl)piperazin-1-yl)methyl)phenyl)-2-fluoro-4-methyl-5-((8-((1-methyl-1H-pyrazol-4-yl)amino)imidazo[1,2-a]pyridin-3-yl)ethynyl)benzamide]	500 to 5000	< 50	< 10	100	100	< 10
Cc1c(F)cc(C(=O)Nc2cc(CN3CCN(CCO)CC3)cc(C(C)(C)C#N)c2)cc1C#Cc1cnc2c(Nc3cnn(C)c3)cccn12 [Example 11, N-(3-(2-cyanopropan-2-yl)-5-((4-(2-hydroxyethyl)piperazin-1-yl)methyl)phenyl)-3-fluoro-4-methyl-5-((8-((1-methyl-1H-pyrazol-4-yl)amino)imidazo[1,2-a]pyridin-3-yl)ethynyl)benzamide]	> 5000	< 50	< 10	100	< 10	< 10
Cc1ccc(C(=O)Nc2cc(CN3CCN(CCO)CC3)cc(C(C)(C)C#N)c2)c(F)c1C#Cc1cnc2c(Nc3cnn(C)c3)cccn12 [Example 12, N-(3-(2-cyanopropan-2-yl)-5-((4-(2-hydroxyethyl)piperazin-1-yl)methyl)phenyl)-2-fluoro-4-methyl-3-((8-((1-methyl-1H-pyrazol-4-yl)amino)imidazo[1,2-a]pyridin-3-yl)ethynyl)benzamide]	> 5000	50 to 500	< 10	> 100	100	< 10
Cc1cn(-c2cc(NC(=O)c3cc(C#Cc4cnc5c(Nc6cnn(C)c6)cccn45)c(C)cc3Cl)cc(C(C)(C)C#N)c2)cn1 [Example 13, 2-chloro-N-(3-(2-cyanopropan-2-yl)-5-(4-methyl-1H-imidazol-1-yl)phenyl)-4-methyl-5-((8-((1-methyl-1H-pyrazol-4-yl)amino)imidazo[1,2-a]pyridin-3-yl)ethynyl)benzamide]	> 5000	< 50	< 10	100	< 10	< 10
Cc1cn(-c2cc(NC(=O)c3cc(C#Cc4cnc5c(Nc6cnn(C)c6)cccn45)c(C)cc3Cl)cc(C(F)(F)F)c2)cn1 [Example 14, 2-chloro-4-methyl-N-(3-(4-methyl-1H-imidazol-1-yl)-5-(trifluoromethyl)phenyl)-5-((8-((1-methyl-1H-pyrazol-4-yl)amino)imidazo[1,2-a]pyridin-3-yl)ethynyl)benzamide]	> 5000	< 50	< 10	100	100	< 10
Cc1cc(Cl)c(C(=O)Nc2cc(Oc3ccncc3)cc(C(F)(F)F)c2)cc1C#Cc1cnc2c(Nc3cnn(C)c3)cccn12 [Example 15, 2-chloro-4-methyl-5-((8-((1-methyl-1H-pyrazol-4-yl)amino)imidazo[1,2-a]pyridin-3-yl)ethynyl)-N-(3-(pyridin-4-yloxy)-5-(trifluoromethyl)phenyl)benzamide]	> 5000	< 50	< 10	< 10	< 10	< 10
Cc1cc(Cl)c(C(=O)Nc2cc(CN3CCN(CCO)CC3)cc(C(C)(C)C#N)c2)cc1C#Cc1cnc2c(Nc3cnn(C)c3)cccn12 [Example 16, 2-chloro-N-(3-(2-cyanopropan-2-yl)-5-((4-(2-hydroxyethyl)piperazin-1-yl)methyl)phenyl)-4-methyl-5-((8-((1-methyl-1H-pyrazol-4-yl)amino)imidazo[1,2-a]pyridin-3-yl)ethynyl)benzamide]	> 5000	50 to 500	< 10	100	100	< 10
Cc1cc(F)c(C(=O)Nc2cc(-c3ccncc3)cc(C(C)(C)C#N)c2)cc1C#Cc1cnc2c(Nc3cnn(C)c3)cccn12 [Example 17, N-(3-(2-cyanopropan-2-yl)-5-(pyridin-4-yl)phenyl)-2-fluoro-4-methyl-5-((8-((1-methyl-1H-pyrazol-4-yl)amino)imidazo[1,2-a]pyridin-3-yl)ethynyl)benzamide]	> 5000	50 to 500	< 10	100	100	< 10

Reference: patent US12673945B2, “3-((8-((1H-pyrazol-4-yl)amino)imidazo[1,2-a]pyridin-3-yl)ethinyl)-n-phenylbenzamide derivative, method for preparing same, and pharmaceutical composition containing same as active ingredient for prevention or treatment of cancer” (DAEGU-GYEONGBUK MEDICAL INNOVATION FOUNDATION, priority 2020, dated 2026)
